Measured values taken from ChEMBL document CHEMBL1201862, “PubChem BioAssay data set” (2004).
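Briefly, cells in 96-well plates were exposed to five compound concentrations for 48 h, and endpoints were estimated by linear interpolation. The concentration for 50% growth inhibition is given as GI50.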 Active and inactive are the calls of the source. Rule as the data show it: active = GI50 up to about 1.1 µM and inactive = higher.

How the values were obtained:
Experiment in all cases: DTP human tumour cell line panel, 48 h
786-0 = test system: 786-0
A549 = test system: A549
BT-549 = test system: BT-549
DU-145 = test system: DU-145
HL-60 = test system: HL-60
Hs-578T = test system: Hs-578T
MDA-MB-231 = test system: MDA-MB-231
MDA-N = test system: MDA-N
NCI-H23 = test system: NCI-H23
NCI-H460 = test system: NCI-H460
RPMI-8226 = test system: RPMI-8226
SF-268 = test system: SF-268
SF-295 = test system: SF-295
SK-MEL-28 = test system: SK-MEL-28
SK-MEL-2 = test system: SK-MEL-2
SNB-19 = test system: SNB-19
SR = test system: SR
U-251 = test system: U-251
A498 = test system: A498
CCRF-CEM = test system: CCRF-CEM

Measured: GI50

CC(C)C/N=C(\N)N=C(N)N
inactive: 786-0 > 100 µM | A549 > 100 µM | BT-549 > 100 µM | DU-145 > 100 µM | HL-60 > 100 µM | Hs-578T > 100 µM | MDA-MB-231 > 100 µM | MDA-N > 100 µM | NCI-H23 > 100 µM | NCI-H460 > 100 µM | RPMI-8226 > 100 µM | SF-268 > 100 µM | SF-295 > 100 µM | SK-MEL-28 > 100 µM | SK-MEL-2 > 100 µM | SNB-19 > 100 µM | SR > 100 µM | U-251 > 100 µM

Clc1ccc(-c2nn3c(CCCCCCCCc4nnc5sc(-c6ccc(Cl)cc6)nn45)nnc3s2)cc1
inactive: 786-0 20.1 µM | A498 24.8 µM | A549 13.2 µM | BT-549 24.8 µM | CCRF-CEM 11.8 µM | DU-145 11.7 µM | Hs-578T 27.2 µM | MDA-MB-231 27 µM | MDA-N 18.2 µM | NCI-H23 27.1 µM | NCI-H460 26.9 µM | RPMI-8226 10.3 µM | SF-268 23.2 µM | SF-295 17.6 µM | SK-MEL-28 23.6 µM | SK-MEL-2 29.8 µM | SNB-19 20.6 µM | SR 17.1 µM | U-251 15.9 µM

C=C1[C@@H](OC(C)=O)/C=C/C2C3C(=O)[C@@](C)(OC(C)=O)[C@H]([C@H](OC(C)=O)[C@]4(O)[C@@H](C)C(=O)O[C@H]4[C@H]1Cl)[C@@]23C (some centres undefined)
inactive: 786-0 > 100 µM | A498 > 100 µM | A549 > 100 µM | BT-549 > 100 µM | CCRF-CEM > 100 µM | DU-145 > 100 µM | Hs-578T > 100 µM | MDA-MB-231 > 100 µM | MDA-N > 100 µM | NCI-H23 > 100 µM | NCI-H460 > 100 µM | RPMI-8226 > 100 µM | SF-268 > 100 µM | SF-295 > 100 µM | SK-MEL-28 > 100 µM | SK-MEL-2 > 100 µM | SNB-19 > 100 µM | U-251 > 100 µM

COc1cc(/C=C2\NC(=O)N(/C=C3\C(=O)Oc4ccccc4C3=O)C2=O)ccc1O
inactive: 786-0 88.7 µM | A498 42.1 µM | A549 > 100 µM | BT-549 43 µM | CCRF-CEM 32.7 µM | DU-145 87.1 µM | HL-60 20.7 µM | Hs-578T 33.6 µM | MDA-MB-231 35.2 µM | MDA-N > 100 µM | NCI-H23 80.2 µM | NCI-H460 > 100 µM | RPMI-8226 > 100 µM | SF-268 57.1 µM | SF-295 > 100 µM | SK-MEL-2 > 100 µM | SNB-19 37.5 µM | U-251 76.6 µM

COc1cccc(/C=C\c2ccnc3ccccc23)c1
inactive: 786-0 > 10 µM | A498 > 10 µM | A549 > 10 µM | BT-549 > 10 µM | CCRF-CEM > 10 µM | DU-145 > 10 µM | HL-60 > 10 µM | Hs-578T > 10 µM | MDA-MB-231 > 10 µM | MDA-N > 10 µM | NCI-H23 > 10 µM | NCI-H460 > 10 µM | RPMI-8226 > 10 µM | SF-268 > 10 µM | SF-295 > 10 µM | SK-MEL-28 > 10 µM | SK-MEL-2 > 10 µM | SNB-19 > 10 µM | U-251 > 10 µM

Oc1[nH]c(Nc2ccc(F)c(Cl)c2)nc2ncnc1-2
inactive: 786-0 82 µM | A498 > 100 µM | A549 > 100 µM | BT-549 > 100 µM | CCRF-CEM > 100 µM | DU-145 > 100 µM | HL-60 > 100 µM | Hs-578T 29.6 µM | MDA-MB-231 > 100 µM | MDA-N > 100 µM | NCI-H23 > 100 µM | NCI-H460 > 100 µM | RPMI-8226 > 100 µM | SF-268 > 100 µM | SF-295 > 100 µM | SK-MEL-28 > 100 µM | SK-MEL-2 > 100 µM | SNB-19 > 100 µM | U-251 99.1 µM

O=C1c2ccccc2C(=O)N1CCCCCCNOCCCN1C(=O)c2ccccc2C1=O
inactive: 786-0 99.1 µM | A498 21.6 µM | A549 32.4 µM | BT-549 30.3 µM | CCRF-CEM 25.6 µM | DU-145 51.8 µM | Hs-578T > 100 µM | MDA-MB-231 57.5 µM | MDA-N 31.6 µM | NCI-H23 26.1 µM | NCI-H460 44.2 µM | RPMI-8226 14.4 µM | SF-268 > 100 µM | SF-295 29.4 µM | SK-MEL-28 55.3 µM | SK-MEL-2 16.3 µM | SNB-19 78.3 µM | SR 33.4 µM | U-251 63 µM

CC1CC(OP(=O)(OCc2ccccc2)OCc2ccccc2)[C@@H](OCc2ccccc2)C(OCc2ccccc2)C1OCc1ccccc1 (some centres undefined)
inactive: 786-0 > 100 µM | A549 24.7 µM | BT-549 79.3 µM | CCRF-CEM > 100 µM | DU-145 > 100 µM | HL-60 28.5 µM | Hs-578T 79.8 µM | MDA-MB-231 > 100 µM | MDA-N > 100 µM | NCI-H23 25.3 µM | NCI-H460 34.3 µM | RPMI-8226 > 100 µM | SF-268 62.7 µM | SF-295 75.5 µM | SK-MEL-28 > 100 µM | SK-MEL-2 > 100 µM | SNB-19 46.8 µM | SR > 100 µM | U-251 20.1 µM

CC1C2(C)OC(=N)C(C#N)(C(c3ccccc3)O2)C1(C#N)C#N (centres undefined)
inactive: 786-0 21.2 µM | A498 42.1 µM | A549 > 100 µM | BT-549 42.3 µM | CCRF-CEM 17.6 µM | DU-145 31.3 µM | HL-60 16.6 µM | Hs-578T 24.6 µM | MDA-MB-231 16.9 µM | MDA-N 18.2 µM | NCI-H23 28.2 µM | NCI-H460 12.6 µM | SF-268 25.5 µM | SF-295 86.5 µM | SK-MEL-28 > 10 µM | SK-MEL-2 16.9 µM | SNB-19 55.2 µM | U-251 18.7 µM

N/C(COc1ccc(Cl)cc1)=N\NC(=O)c1ccncc1
inactive: 786-0 54.3 µM | A498 57.9 µM | A549 > 100 µM | BT-549 > 100 µM | CCRF-CEM 51.1 µM | DU-145 > 100 µM | HL-60 > 100 µM | Hs-578T > 100 µM | MDA-MB-231 > 100 µM | MDA-N > 100 µM | NCI-H23 > 100 µM | NCI-H460 63.5 µM | RPMI-8226 39.4 µM | SF-268 > 100 µM | SF-295 > 100 µM | SK-MEL-28 > 100 µM | SK-MEL-2 > 100 µM | SNB-19 > 100 µM | U-251 > 100 µM

OCC(O)C(Cl)CCl (centres undefined)
inactive: 786-0 > 100 µM | A498 > 10 µM | A549 > 100 µM | BT-549 > 100 µM | CCRF-CEM > 100 µM | DU-145 > 100 µM | HL-60 > 100 µM | Hs-578T > 100 µM | MDA-MB-231 > 100 µM | MDA-N > 100 µM | NCI-H23 > 100 µM | NCI-H460 > 100 µM | SF-268 > 100 µM | SF-295 > 100 µM | SK-MEL-28 > 100 µM | SNB-19 > 100 µM | SR > 100 µM | U-251 > 100 µM
